This note sets out measurements from PubChem BioAssay AID1996.

Converted amounts (≈) assume the structure as drawn.

The conditions of this data set: buffer; pH 7.4; 200.0 µM.
As a reminder, the kinetic solubility is the concentration staying in solution when a stock, usually in DMSO, is diluted into the medium. In turn, `COc1ccccc1NC(=O)NC1(C)CCS(=O)(=O)C1` (stereo unspecified) registered a solubility (kinetic) above 44.8 µg/mL.
The same measure for `CC(=O)c1cnc(Nc2cccc(C)c2)s1`: 13.7 µg/mL (≈ 59 µM); for `CC(=O)N1CCc2cc(S(=O)(=O)Nc3ccc(C)cc3)ccc21`: 3.6 µg/mL (≈ 10.9 µM); for `CCCn1c(C(=O)c2ccc(OC)cc2)nc2ccccc21`: 1.7 µg/mL (≈ 5.78 µM).
On to `Cc1ccccc1Oc1nc(-c2ccccn2)nc2ccccc12`, for which the kinetic solubility was determined as 35 µg/mL (≈ 112 µM).
As to `CC(=O)N1CCN(S(=O)(=O)c2ccc(F)c(Cl)c2)CC1`, the solubility (kinetic) is above 48.1 µg/mL.
Regarding `CCc1ccc2[nH]c(C(=O)Nc3ccc4c(c3)OCO4)cc2c1`, the solubility (kinetic) amounted to 0.8 µg/mL (≈ 2.59 µM).
To `COc1ccccc1C(=O)CN1C(=O)NC2(CCCCCC2)C1=O` belongs 12.9 µg/mL (≈ 39 µM); to `Cc1cc(N2CCN(C)CC2)nc2ccccc12`, 32.9 µg/mL (≈ 136 µM); to `COc1ccc(OCCNC(=O)CCCO)cc1`, 4 µg/mL (≈ 15.8 µM).
For `CCn1ccc(C(=O)NCCCN2CCCC2=O)n1`, the kinetic solubility was above 39.6 µg/mL.
To `CC(C)(C)c1ccc(Oc2ccc(NC(=O)CCCC(=O)O)cn2)cc1` belongs above 53.5 µg/mL; to `Cc1cc(C)n2nc(C(=O)OCC(=O)Nc3ccc(C)c(S(=O)(=O)N4CCOCC4)c3)nc2n1`, above 73.3 µg/mL; to `O=c1[nH]c2ccc(NCc3ccc(F)cc3)cc2[nH]1`, 35.9 µg/mL (≈ 140 µM).
To `CCC(NC(=S)NCc1ccc(F)cc1)c1ccc(C)cc1` (stereo unspecified) belongs 0.8 µg/mL (≈ 2.53 µM); to `CCC(CC)c1nc2ccccc2c(=O)[nH]1`, above 32.4 µg/mL; to `O=C(COC(=O)c1ccccc1OCc1ccccc1Cl)NCC1CCCO1` (stereo unspecified), above 60.6 µg/mL.
To `Cc1ccc2nsnc2c1S(=O)(=O)N1CCN(C)CC1` belongs 45.5 µg/mL (≈ 146 µM); to `Cc1cccc(C(=O)Nc2ccc(C(=O)c3ccccc3)cc2)c1`, below 0.7 µg/mL.
In the case of `CC(C)=C(NC(=O)c1ccccc1)C(=O)NCc1ccccc1`, the solubility (kinetic) was above 46.3 µg/mL.
To `CC(=O)Nc1ccc(NC(=O)C(C)OC(=O)[C@@H]2CCCN2C(=O)c2cccs2)cc1` (stereo partly specified) belongs above 64.4 µg/mL; to `Cc1ccc(S(=O)(=O)NCC2(c3ccccc3)CCOCC2)cc1`, below 0.7 µg/mL; to `CNC(=O)c1c(O)c2cccc3c2n(c1=O)CCC3`, 2.6 µg/mL (≈ 10.1 µM).
The same measure for `C=CCC1(Cl)C(=O)C(Cl)=C(N2CCN(C)CC2)C1(OC)OC` (stereo unspecified): above 52.4 µg/mL.
The same measure for `CCc1nc2cccnc2n1-c1ccc(C(=O)O)cc1`: above 40.1 µg/mL; for `COc1cc(NC(=O)c2cc(C)no2)cc(OC)c1OC`: above 43.8 µg/mL.
Consider `CC(Cc1ccccc1)NC(=S)CN1CCCC1=S` (stereo unspecified), for which the solubility (kinetic) was determined as 38.9 µg/mL (≈ 133 µM).
On to `COc1ccc(NC(=O)c2c(F)cccc2Cl)cc1S(=O)(=O)N1CCOCC1`, for which the solubility (kinetic) is above 64.3 µg/mL.
The same measure for `C=CCn1c(O)c(C(CC)=NCC2CCCO2)c(=O)[nH]c1=O` (stereo unspecified): above 46.1 µg/mL; for `C=CCn1cnc2scc(-c3ccc(OC)cc3)c2c1=O`: 39 µg/mL (≈ 131 µM).
Compound `CCCc1cc(=O)[nH]c(SCC(=O)Nc2sc3c(c2C(N)=O)CCCC3)n1` came in with a solubility (kinetic) of 9 µg/mL (≈ 22.1 µM).
To `O=C(O)c1cc(S(=O)(=O)N2CCN(S(=O)(=O)c3ccc4ccccc4c3)CC2)ccc1Br` belongs 77 µg/mL (≈ 143 µM); to `O=C(NC1CCN(C(=O)Nc2ccc(F)cc2)CC1)c1ccc(F)cc1`, 3.7 µg/mL (≈ 10.3 µM); to `CCOC(=O)C1=C(O)/C(=C\c2cc(C)n(-c3ccccc3F)c2C)N=C1C`, 32.6 µg/mL (≈ 88.5 µM).
The same measure for `CC(=NCCN(C)C)c1c(O)n(Cc2ccccc2)c(=O)[nH]c1=O`: above 49.6 µg/mL; for `Cc1cc(=O)oc2cc(NC(=O)c3cccc(S(C)(=O)=O)c3)ccc12`: 3.5 µg/mL (≈ 9.79 µM).
To `Cc1nc(C(F)(F)F)ccc1C(=O)NCC(O)c1ccccc1` (stereo unspecified) belongs above 48.6 µg/mL; to `O=C(c1ccc(Cl)c(S(=O)(=O)N2CCOCC2)c1)N1CCCC1`, above 53.8 µg/mL; to `O=C(Nc1nccs1)c1ccccc1Br`, 6.2 µg/mL (≈ 21.9 µM).
Regarding `COc1ccc2c(c1)c(C(=O)CN1CCCCC1)c(C)n2C`, the solubility (kinetic) turned out to be 44.3 µg/mL (≈ 147 µM).
The same measure for `Cc1nc2ccc(NC(=O)c3ccc([N+](=O)[O-])cc3)cc2[nH]1`: 30.6 µg/mL (≈ 103 µM); for `Cn1c(-c2ccncc2)nc2ccccc21`: above 31.4 µg/mL; for `Cc1ccccc1N(CC(=O)N1CCCCCC1)S(C)(=O)=O`: above 48.7 µg/mL.
Regarding `CC1CCC(N2CCNCC2)CC1.Cl` (stereo unspecified), the kinetic solubility is above 32.8 µg/mL.
With `COC(=O)c1cn(C(=O)c2ccc(Cl)cc2)c2ccccc12`, the solubility (kinetic) worked out at 1.6 µg/mL (≈ 5.1 µM).
The same measure for `Cc1c(OCC(N)=O)ccc2c(-c3ccccc3)cc(=O)oc12`: 0.9 µg/mL (≈ 2.91 µM).
The same measure for `COCCCNc1nc(N)c([N+](=O)[O-])c(N2CCCCCC2)n1`: 47.4 µg/mL (≈ 146 µM).
`CN(Cc1cccc(Cl)c1Cl)C(=O)c1cc(S(=O)(=O)N2CCOCC2)ccc1F` gave a kinetic solubility of 5.2 µg/mL (≈ 11.3 µM).
In turn, `COc1ccccc1OCCC(=O)OCC(=O)Nc1ccc2c(c1)OCO2` showed a solubility (kinetic) of 16.3 µg/mL (≈ 43.7 µM).
The compound `COc1ccc(CNC(=O)c2cc3cccc(O)c3oc2=N)cc1` had a solubility (kinetic) of 7.2 µg/mL (≈ 22.2 µM).
On to `CCCNC(=O)c1c(O)c2cccc3c2n(c1=O)CCC3`, for which the solubility (kinetic) turned out to be 0.5 µg/mL (≈ 1.75 µM).
